The text below walks through data of patent US20170305943A1, “COMPOUNDS FOR THE TREATMENT OF BACTERIAL INFECTIONS” (priority 2014, published 2017).

Values after ≈ are worked out from the molar mass of the structure shown. Some results are limits rather than exact numbers.

The subject of this assay is Clostridium difficile (Isolate ID ATCC 9689). Description: Bacterial Assay: Determination of Antibacterial Activity (MIC, broth microdilution or agar dilution). Format: cell-based. To be noted: Clostridioides difficile, ATCC9689, 48 h, read-out: C. difficile MIC Activity Range. An outline of the steps: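 MICs were set by CLSI broth microdilution or agar dilution for anaerobes, read visually after 48 hours at 37° C. under anaerobic gas packs. Medium was reinforced clostridial medium with 0.1% defibrinated horse blood; values are binned as A ≦1.01, B >1.0-4.0, C >4.0-16 μg/mL.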
For the compound `NC(=O)c1c(F)ccc(OCCCCOc2cccc(Br)c2)c1F` [Compound 172, 3-[4-(3-bromophenoxy)butoxy]-2,6-difluorobenzamide], the MIC lay within 1 to 4 µg/mL (≈ 2.5 to 9.99 µM).

Take `N#Cc1cccc(OCCCCOc2ccc(F)c(C(N)=O)c2F)c1` [Compound 173, 3-[4-(3-cyanophenoxy)butoxy]-2,6-difluorobenzamide]: the minimal inhibitory concentration (MIC) lay in the range of 4 to 16 µg/mL (≈ 11.5 to 46.2 µM).

In the case of `NC(=O)c1c(F)ccc(OCCCCOc2cccc(S(F)(F)(F)(F)F)c2)c1F` [Compound 174, 2,6-difluoro-3-{4-[3-(pentafluoro-lambda~6~- sulfanyl)phenoxy]butoxy}benzamide], the minimal inhibitory concentration (MIC) is under 1.01 µg/mL.

Regarding `CC(C)(C)c1ccc(OCCCCOc2ccc(F)c(C(N)=O)c2F)cc1` [Compound 175, 3-[4-(4-tert-butylphenoxy)butoxy]-2,6-difluorobenzamide], the MIC was under 1.01 µg/mL.

Take `NC(=O)c1c(F)ccc(OCCCCOc2ccc(Br)cc2)c1F` [Compound 176, 3-[4-(4-bromophenoxy)butoxy]-2,6-difluorobenzamide]: the minimum inhibitory concentration (MIC) is under 1.01 µg/mL.

For the compound `N#Cc1ccc(OCCCCOc2ccc(F)c(C(N)=O)c2F)cc1` [Compound 177, 3-[4-(4-cyanophenoxy)butoxy]-2,6-difluorobenzamide], the MIC fell in the range of 1 to 4 µg/mL (≈ 2.89 to 11.5 µM).

Regarding `N/C(=N\O)c1c(F)ccc(OCCCCOc2ccc(C(F)(F)F)cn2)c1F` [Compound 178, 2,6-difluoro-N′-hydroxy-3-(4-{[5-(trifluoromethyl)pyridin-2-yl]oxy}butoxy)benzenecarboximidamide], the MIC was 4 to 16 µg/mL (≈ 9.87 to 39.5 µM).

For the compound `NC(=O)c1c(F)ccc(NCCCCOc2ccc(C(F)(F)F)cn2)c1F` [Compound 179, 2,6-difluoro-3-[(4-{[5-(trifluoromethyl)pyridin-2-yl]oxy}butyl)amino]benzamide], the MIC was in the range of 4 to 16 µg/mL (≈ 10.3 to 41.1 µM).

Take `CN(CCCCOc1ccc(C(F)(F)F)cn1)c1ccc(F)c(C(N)=O)c1F` [Compound 180, 2,6-difluoro-3-[methyl(4-{[5-(trifluoromethyl)pyridin-2-yl]oxy}butyl)amino]benzamide]: the minimum inhibitory concentration (MIC) lay in the range of 1 to 4 µg/mL (≈ 2.48 to 9.92 µM).

With `NC(=O)c1c(F)ccc(N(CCO)CCCCOc2ccc(OC(F)(F)F)cc2)c1F` [Compound 181, 2,6-difluoro-3-[(2-hydroxyethyl){4-[4-(trifluoromethoxy)phenoxy]butyl}amino] benzamide], the MIC was 1 to 4 µg/mL (≈ 2.23 to 8.92 µM).

On to `N#CCCCN(CCCCOc1ccc(OC(F)(F)F)cc1)c1ccc(F)c(C(N)=O)c1F` [Compound 182, 3-[(3-cyanopropyl){4-[4-(trifluoromethoxy)phenoxy]butyl)amino]-2,6-difluorobenzamide], for which the MIC was in the range of 4 to 16 µg/mL (≈ 8.48 to 33.9 µM).

In the case of `NC(=O)CN(CCCCOc1ccc(OC(F)(F)F)cc1)c1ccc(F)c(C(N)=O)c1F` [Compound 183, 3-[(2-amino-2-oxoethyl){4-[4-(trifluoromethoxy)phenoxy]butyl}amino]-2,6-difluorobenzamide], the MIC lay within 4 to 16 µg/mL (≈ 8.67 to 34.7 µM).

Take `COCCN(CCCCOc1ccc(OC(F)(F)F)cc1)c1ccc(F)c(C(N)=O)c1F` [Compound 184, 2,6-difluoro-3-[(2-methoxyethyl){4-[4-(trifluoromethoxy)phenoxy]butyl}amino]benzamide]: the minimal inhibitory concentration (MIC) fell in the range of 1 to 4 µg/mL (≈ 2.16 to 8.65 µM).

Consider `Cc1ccc(CN(CCCCOc2ccc(OC(F)(F)F)cc2)c2ccc(F)c(C(N)=O)c2F)cn1` [Compound 185, 2,6-difluoro-3-([(6-methylpyridin-3-yl)methyl]{4-[4-(trifluoromethoxy)phenoxy]butyl}amino)benzamide], for which the minimum inhibitory concentration (MIC) is 4 to 16 µg/mL (≈ 7.85 to 31.4 µM).

On to `CCOC(=O)CN(CCCCOc1ccc(OC(F)(F)F)cc1)c1ccc(F)c(C(N)=O)c1F` [Compound 186, ethyl N-(3-carbamoyl-2,4-difluorophenyl)-N-{4-[4-(trifluoromethoxy)phenoxy]butyl}glycinate], for which the MIC is 1 to 4 µg/mL (≈ 2.04 to 8.16 µM).

As to `NC(=O)c1c(F)ccc(N(CCCCOc2ccc(OC(F)(F)F)cc2)CC(=O)O)c1F` [Compound 187, N-(3-carbamoyl-2,4-difluorophenyl)-N-{4-[4-(trifluoromethoxy)phenoxy]butyl}glycine], the minimal inhibitory concentration (MIC) is 4 to 16 µg/mL (≈ 8.65 to 34.6 µM).

One may read the MIC as the lowest concentration that inhibits growth of the organism.
